According to patent US10597388B2, “Pyridazinone herbicides” (FMC CORPORATION, priority 2014, dated 2020):

Columns and labels:
Type in all cases: in vivo
[1] = system: blackgrass (Alopecurus myosuroides); assay: Test A greenhouse herbicide test, postemergence
Procedure, shortened: (§1)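 Greenhouse postemergence test: formulated chemicals sprayed on one- to two-leaf plants (2 to 10 cm), grown in loam soil blended with sand. Injury assessed visually about 10 d later against untreated controls, scored 0 (no effect) to 100 (complete control).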

[2] = system: galium (catchweed bedstraw, Galium aparine); assay: Test A greenhouse herbicide test, postemergence
Procedure, shortened: as §1

[3] = system: chickweed (common chickweed, Stellaria media); assay: Test C greenhouse herbicide test, postemergence
Procedure, shortened: (§2)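 Ratings are visual scores from 0 (no effect) to 100 (complete control), made against controls 13–15 d after treatment. Postemergence sprays were applied in the greenhouse to plants 2–18 cm tall (1- to 4-leaf stage) in peat-moss/vermiculite potting medium.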

kochia (Kochia scoparia) = assay: Test C greenhouse herbicide test, postemergence
Procedure, shortened: as §2

[4] = system: oat, wild (wild oat, Avena fatua); assay: Test C greenhouse herbicide test, postemergence
Procedure, shortened: as §2

[5] = system: sedge, umbrella (small-flower umbrella sedge, Cyperus difformis); assay: Test B flooded paddy test; details: 250 g ai/ha, Flood; visual rating on scale of 0 to 100 where 0 is no effect and 100 is complete control; 13 to 15 d after treatment
Procedure, shortened: (§3)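 Plants at the 2-leaf stage were flooded to 3 cm above soil, and test compounds were applied directly into the paddy water, which was held at that depth throughout. After 13 to 15 d in a greenhouse, injury was rated visually against untreated controls on a 0–100 scale (0 no effect, 100 complete control).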

[6] = system: ducksalad (Heteranthera limosa); assay: Test B flooded paddy test; details: 250 g ai/ha, Flood; visual rating on scale of 0 to 100 where 0 is no effect and 100 is complete control; 13 to 15 d after treatment
Procedure, shortened: as §3

[7] = system: barnyardgrass (Echinochloa crus-galli); assay: Test B flooded paddy test; details: 250 g ai/ha, Flood; visual rating on scale of 0 to 100 where 0 is no effect and 100 is complete control; 13 to 15 d after treatment
Procedure, shortened: as §3

rice (Oryza sativa) = assay: Test B flooded paddy test; details: 250 g ai/ha, Flood; visual rating on scale of 0 to 100 where 0 is no effect and 100 is complete control; 13 to 15 d after treatment
Procedure, shortened: as §3

[8] = system: ryegrass, Italian (Italian ryegrass, Lolium multiflorum); assay: Test A greenhouse herbicide test, pre- and postemergence
Procedure, shortened: (§4)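 Seeds sown in loam–sand blend got a preemergence directed soil spray of compound in non-phytotoxic solvent with surfactant. Postemergence treatment was given at 2–10 cm, one- to two-leaf stage. After ~10 d in greenhouse, injury was rated visually vs untreated controls, 0 (no effect) to 100 (complete control).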

[9] = system: barnyardgrass (Echinochloa crus-galli); assay: as above
Procedure, shortened: as §4

corn (Zea mays) = assay: as above; details: Postemergence
Procedure, shortened: as §4

[10] = 125 g ai/ha, 0 to 100 scale where 0 is no effect and 100 is complete control
[11] = 500 g ai/ha, visual rating after approx. 10 d, 0 to 100 scale (0 no effect, 100 complete control)
[12] = Postemergence, 31 g ai/ha, scale 0 to 100 (0 no effect, 100 complete control)
[13] = Postemergence, 125 g ai/ha, scale 0 to 100, 0 is no effect, 100 is complete control
[14] = Postemergence, 250 g ai/ha, scale 0 to 100, 0 no effect, 100 complete control, 13 to 15 d
[15] = Postemergence, 125 g ai/ha, 0 to 100 scale where 0 is no effect and 100 is complete control
[16] = Postemergence, 500 g ai/ha, visual rating after approx. 10 d, 0 to 100 scale (0 no effect, 100 complete control)
[17] = Preemergence, 125 g ai/ha, 0 to 100 scale where 0 is no effect and 100 is complete control
[18] = Preemergence, 500 g ai/ha, 0 to 100 scale where 0 is no effect and 100 is complete control
[19] = Postemergence, 62 g ai/ha, 0 to 100 scale (0 no effect, 100 complete control)
[20] = postemergence, 125 g ai/ha, scale 0 to 100, 0 no effect, 100 complete control
[21] = 125 g ai/ha, 0 to 100 scale, 0 no effect, 100 complete control
[22] = Postemergence, 250 g ai/ha, scale 0 to 100, 0 is no effect, 100 is complete control
[23] = Postemergence, 125 g ai/ha, 0 to 100 scale, 0 no effect, 100 complete control
[24] = Preemergence, 125 g ai/ha, visual injury rating, 0 to 100 scale (0 no effect, 100 complete control), approx. 10 d

Compound	Plant response rating, Blackgrass [1, 10]	Plant response rating, Blackgrass [1, 11]	Plant response rating, Galium [2, 10]	Plant response rating, Galium [2, 11]	Plant response rating, Chickweed [3, 12]	Plant response rating, Chickweed [3, 14]	Plant response rating, Kochia (kochia (Kochia scoparia); [12])	Plant response rating, Kochia (kochia (Kochia scoparia); [14])	Plant response rating, Oat, Wild [4, 12]	Plant response rating, Oat, Wild [4, 14]	Plant response rating, Sedge, Umbrella [5]	Plant response rating, Ducksalad [6]	Plant response rating, Barnyardgrass [7]	Plant response rating, Rice (rice (Oryza sativa))	Plant response rating, Ryegrass, Italian [8, 15]	Plant response rating, Ryegrass, Italian [8, 16]	Plant response rating, Ryegrass, Italian [8, 18]	Plant response rating, Barnyardgrass [9, 16]	Plant response rating, Barnyardgrass [9, 18]	Plant response rating, Corn (corn (Zea mays); [11])	further results
Cc1nn(C)c(=O)c(-c2c(C)sc3ccc(C(F)(F)F)cc23)c1O [Compound 121]	20	50	70	90	90	98	90	95	65	90	0	0	0	0	90	100	90	50	50	20	Plant response rating, Chickweed [3, 13]: 90; Chickweed plant response rating ([3]; postemergence, 62 g ai/ha, scale 0 to 100, 0 no effect, 100 complete control): 90; Plant response rating, Kochia (kochia (Kochia scoparia); [13]): 95; Plant response rating, Oat, Wild [4, 13]: 80; Ryegrass, Italian plant response rating [8, 17]: 80; Plant response rating, Barnyardgrass [9, 15]: 30; Barnyardgrass plant response rating [9, 17]: 20; Plant response rating, Corn (corn (Zea mays); [10]): 20
Cc1nn(C)c(=O)c(-c2cccc3ccc(Br)cc23)c1O [Compound 126]	60	70	100	100	90	100	90	95	60	85	0	30	0	0	90	100	100	60	80	20	Chickweed plant response rating [3, 19]: 90; Plant response rating, Chickweed [3, 13]: 95; Kochia plant response rating (kochia (Kochia scoparia); [19]): 90; Plant response rating, Kochia (kochia (Kochia scoparia); [13]): 95; Oat, Wild plant response rating [4, 19]: 80; Plant response rating, Oat, Wild [4, 13]: 90; Ryegrass, Italian plant response rating [8, 17]: 90; Plant response rating, Barnyardgrass [9, 15]: 30; Barnyardgrass plant response rating [9, 17]: 40; Plant response rating, Corn (corn (Zea mays); [10]): 0
COC(=O)Oc1c(C)nn(C)c(=O)c1-c1ccc(F)c2ccccc12 [Compound 130]	60	70	100	100	90	100	95	100	60	95	0	0	0	0	100	100	100	90	100	30	Chickweed plant response rating [3, 19]: 95; Chickweed plant response rating [3, 20]: 98; Kochia plant response rating (kochia (Kochia scoparia); [19]): 95; Kochia plant response rating (kochia (Kochia scoparia); [20]): 100; Oat, Wild plant response rating [4, 19]: 80; Oat, Wild plant response rating [4, 20]: 85; Ryegrass, Italian plant response rating [8, 17]: 100; Plant response rating, Barnyardgrass [9, 15]: 60; Barnyardgrass plant response rating [9, 17]: 30; Plant response rating, Corn (corn (Zea mays); [10]): 0
CC(=O)Oc1c(C)nn(C)c(=O)c1-c1c(C)sc2ccc(C(F)(F)F)cc12 [Compound 132]	30	50	80	100	90	95	85	95	40	90	0	0	0	0	100	100	90	30	70	10	Chickweed plant response rating [3, 19]: 90; Chickweed plant response rating [3, 20]: 95; Kochia plant response rating (kochia (Kochia scoparia); [19]): 90; Kochia plant response rating (kochia (Kochia scoparia); [20]): 95; Oat, Wild plant response rating [4, 19]: 60; Oat, Wild plant response rating [4, 20]: 70; Ryegrass, Italian plant response rating [8, 17]: 90; Plant response rating, Barnyardgrass [9, 15]: 0; Barnyardgrass plant response rating [9, 17]: 0; Plant response rating, Corn (corn (Zea mays); [10]): 0
Cc1nn(C)c(=O)c(-c2c([N+](=O)[O-])ccc3ccccc23)c1O [Compound 165]	–	50	–	100	70	–	45	–	40	–	0	0	0	0	–	90	100	30	30	20	Plant response rating, Blackgrass [1, 21]: 20; Plant response rating, Galium [2, 21]: 100; Chickweed plant response rating [3, 19]: 90; Plant response rating, Chickweed [3, 22]: 98; Chickweed plant response rating [3, 20]: 95; Kochia plant response rating (kochia (Kochia scoparia); [19]): 40; Plant response rating, Kochia (kochia (Kochia scoparia); [22]): 90; Kochia plant response rating (kochia (Kochia scoparia); [20]): 85; Oat, Wild plant response rating [4, 19]: 45; Plant response rating, Oat, Wild [4, 22]: 70; Oat, Wild plant response rating [4, 20]: 65; Plant response rating, Ryegrass, Italian [8, 23]: 80; Plant response rating, Ryegrass, Italian [8, 24]: 40; Plant response rating, Barnyardgrass [9, 23]: 20; Plant response rating, Barnyardgrass [9, 24]: 10; Plant response rating, Corn (corn (Zea mays); [21]): 0
